Here are results for twelve compounds from ChEMBL document CHEMBL1132834, “Phenylpropenamide derivatives as inhibitors of hepatitis B virus replication” (Bioorg Med Chem Lett, 2000).

Bounds are passed on as bounds.

In data set [1] the test system is HepG2. Kind of data set: (§1) Inhibition of hepatitis B virus replication in the HepAD38 cell line. In kind it is functional, cell-based. To be noted: Homo sapiens.
The test system of data set [2] is HepG2. Put plainly: The concentration of compound which inhibits hepatitis B virus replication in the HepAD38 cell line. To be noted: Homo sapiens.
The nature of data set [3]: Inhibition of Duck HBV replication by 50% (no effect at this concentration). To be noted: Anas sp. The format is functional, organism-based.
Data set [4] deals with Newcastle disease virus. Kind of data set: Inhibition of Newcastles disease virus replication by 50% (no effect at this concentration). The format is functional, organism-based. To be noted: avian paramyxovirus 1.
Data set [5] is described as follows: Inhibition of Woodchuck HBV replication by 50% (no effect at this concentration). The format is functional, organism-based. To be noted: Marmota monax.
The subject of data set [6] is Human immunodeficiency virus 1. Kind of data set: Inhibition of HIV-1 replication by 50% (no effect at this concentration). In kind it is functional, organism-based.
Data set [7] relates to Human alphaherpesvirus 1. Put plainly: Inhibition of HSV-1 replication by 50% (no effect at this concentration). In kind it is functional, organism-based.
Data set [8] deals with Vesicular stomatitis virus. Put plainly: Inhibition of Vesicular stomatis virus replication by 50% (no effect at this concentration). In kind it is functional, organism-based.
A short description of data set [9]: as §1. In kind it is functional, cell-based. To be noted: Homo sapiens.
The nature of data set [10]: Reduction of viable cell numbers by 50% was evaluated by HepAD38 cellular assay. The format is ADME, cell-based. To be noted: human, HepAD38 cells; read-out: TC50 (the source's name).
Data set [11] can be described thus: Concentration which inhibits hepatitis B virus replication in the HepAD38 cell line. The format is functional. To be noted: Homo sapiens.

As a reminder, the EC50 is the midpoint of the concentration-response curve. A higher EC50 goes with a need for much substance. Take `CCN(CC)C(=O)/C(NC(=O)c1ccccc1)=C(\Cl)c1ccccc1`: the EC50 in data set [1] is greater than 75 µM.

`O=C(N/C(C(=O)N1CCOCC1)=C(/Cl)c1ccccc1)c1ccccc1` had an EC50 in [1] of 7.3 µM.

For the compound `O=C(N/C(C(=O)N1CCCC1)=C(/Cl)c1ccccc1)c1ccccc1`, the 50% effective concentration (EC50) in [1] worked out at 5.6 µM.

`O=C(NCc1ccccc1)/C(NC(=O)c1ccccc1)=C(\Cl)c1ccccc1` had an EC50 in [1] greater than 75 µM.

With `O=C(N/C(C(=O)N1CCCCCCC1)=C(/Cl)c1ccccc1)c1ccccc1`, the EC50 in [1] is greater than 75 µM.

In [1], `O=C(Nc1nccs1)/C(NC(=O)c1ccccc1)=C(\Cl)c1ccccc1` showed an EC50 greater than 75 µM.

As a reminder, the EC90 is the concentration needed for an effect of 90%. High values mean weaker potency, low ones greater potency. With `Nc1nc(=O)n([C@@H]2CS[C@H](CO)O2)cc1F` [EMTRICITABINE], it took 0.3 µM to reach the 90% level in [2] (EC90). Further, the EC50 is greater than 81 µM in data set [3]; greater than 81 µM in data set [4]; 0.03 µM in [1]; greater than 81 µM in data set [5]; greater than 81 µM in [6]; greater than 81 µM in [7]. In addition, the EC50 in data set [8] was greater than 81 µM.

Consider `O=C(N/C(C(=O)N1CCCCC1)=C(/Br)c1ccccc1)c1ccc(Cl)cc1`, for which the EC50 was greater than 81 µM in [3]; greater than 81 µM in data set [4]; 0.54 µM in data set [9]; greater than 81 µM in [5]; greater than 81 µM in data set [6]; greater than 81 µM in data set [7]. In [8], this compound came in with an EC50 greater than 81 µM. In addition, the CC50 in [10] was greater than 67 µM. In data set [11], this compound had an EC90 of 3.1 µM.

As to `O=C(N/C(C(=O)N1CCCCC1)=C(/Cl)c1ccccc1)c1ccccc1`, the EC50 is greater than 81 µM in data set [3]; greater than 81 µM in data set [4]; 1.2 µM in data set [9]; greater than 81 µM in [5]; greater than 81 µM in [6]; greater than 81 µM in data set [7]. In data set [8], this compound registered an EC50 greater than 81 µM. Further, the CC50 in [10] was greater than 81 µM. Besides, in [11], it took 13 µM to reach the 90% level (EC90).

For `COc1ccc(C(=O)N/C(C(=O)N2CCCCC2)=C(/Br)c2ccccc2)cc1`, the EC50 in data set [3] was greater than 81 µM; in [4], greater than 81 µM; in data set [9], 1.9 µM; in data set [5], greater than 81 µM; in data set [6], greater than 81 µM; in [7], greater than 81 µM. The compound further displayed an EC50 in [8] greater than 81 µM. In addition, the CC50 in data set [10] is greater than 67 µM. Moreover, in data set [11], the EC90 worked out at 19 µM.

For `O=C(N/C(C(=O)N1CCCCCC1)=C(/Cl)c1ccccc1)c1ccccc1`, in data set [1], the EC50 was greater than 75 µM.

Take `Cc1ccccc1/C(Br)=C(\NC(=O)c1ccc([N+](=O)[O-])cc1)C(=O)N1CCCCC1`: the EC50 in data set [3] is greater than 81 µM; in data set [4], greater than 81 µM; in data set [9] it was 0.6 µM; in data set [5], greater than 81 µM; in [6], greater than 81 µM; in data set [7], greater than 81 µM. For the same compound, in [8], the EC50 was greater than 81 µM. For the same compound, the CC50 in [10] was greater than 63 µM. This compound also showed an EC90 in [11] of 4.6 µM.
